Patent publication US8759480B2, “Contoxin analogues and methods for synthesis of intramolecular dicarba bridge-containing peptides” (Syngene Limited, priority 2006, dated 2014)

Test system: neuronal-type nicotinic receptors
Type: cell-based, bovine

## CN1CCCC1c1cccnc1 (stereo not shown) [NICOTINE, nicotine, reference compound]
  Adrenaline Release 1st: 4.31%
  Adrenaline Release 2nd: 4.52%
  Adrenaline Release 3rd: 4.52%
  Adrenaline Release 4th: 4.48%
  Adrenaline Release % control: 100.000%
  Adrenaline Release mean: 4.46%
  Noradrenaline Release 1st: 6.62%
  Noradrenaline Release 2nd: 6.89%
  Noradrenaline Release 3rd: 6.99%
  Noradrenaline Release 4th: 6.89%
  Noradrenaline Release % control: 100.000%
  Noradrenaline Release mean: 6.85%
  noradrenaline released, basal release (0.72%) subtracted: 6.13%
